Test results published in the supplement of paper PMC10307832.

Legend:
Assay in all cases: relative viability (nuclei count vs DMSO), 5 days (fraction); higher = more cells survive
NCI-H1666 = tested on: NCI-H1666
How it was run: (§1)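 The day after seeding in 1536-well plates, lung cancer cell lines were treated by pin tool with a single drug, or with a fixed anchor-drug dose together with five library-drug doses (not always all listed) in √10 steps. After 5 days, a combined fix-and-stain solution (final 0.05% Triton X-100, 1% formaldehyde, 1 ug/ml Hoechst) was added. Nuclei counted on 4× images gave relative viability as treated counts over vehicle counts, reported as the median of duplicate plates.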

NCI-H2347 = tested on: NCI-H2347
How it was run: as §1

NCI-H838 = tested on: NCI-H838
How it was run: as §1

NCI-H1975 = tested on: NCI-H1975
How it was run: as §1

NCI-H358 = tested on: NCI-H358
How it was run: as §1

HARA = tested on: HARA
How it was run: as §1

LU99A = tested on: LU99A
How it was run: as §1

NCI-H1734 = tested on: NCI-H1734
How it was run: as §1

HCC-366 = tested on: HCC-366
How it was run: as §1

PC-3 [JPC-3] = tested on: PC-3 [JPC-3]
How it was run: as §1

NCI-H3122 = tested on: NCI-H3122
How it was run: as §1

NCI-H2405 = tested on: NCI-H2405
How it was run: as §1

LXF-289 = tested on: LXF-289
How it was run: as §1

NCI-H661 = tested on: NCI-H661
How it was run: as §1

NCI-H650 = tested on: NCI-H650
How it was run: as §1

NCI-H1792 = tested on: NCI-H1792
How it was run: as §1

HCC-15 = tested on: HCC-15
How it was run: as §1

NCI-H460 = tested on: NCI-H460
How it was run: as §1

NCI-H1944 = tested on: NCI-H1944
How it was run: as §1

SW 1573 = tested on: SW 1573
How it was run: as §1

NCI-H1793 = tested on: NCI-H1793
How it was run: as §1

NCI-H2228 = tested on: NCI-H2228
How it was run: as §1

Nc1cccc2c1CN(C1CCC(=O)NC1=O)C2=O (centres undefined) [Lenalidomide] + CC(=O)c1c(C)c2cnc(Nc3ccc(N4CCNCC4)cn3)nc2n(C2CCCC2)c1=O [Palbociclib] (partner 0.5 µM)
relative viability (NCI-H1666; first compound 0.253 µM): 0.647
relative viability (NCI-H1666; first compound 0.8 µM): 0.584
relative viability (NCI-H1666; first compound 2.53 µM): 0.646
relative viability (NCI-H1666; first compound 8 µM): 0.642
relative viability (NCI-H2347; first compound 0.253 µM): 0.492
relative viability (NCI-H2347; first compound 0.8 µM): 0.446
relative viability (NCI-H2347; first compound 2.53 µM): 0.494
relative viability (NCI-H2347; first compound 8 µM): 0.424
relative viability (NCI-H838; first compound 0.253 µM): 0.172
relative viability (NCI-H838; first compound 0.8 µM): 0.19
relative viability (NCI-H838; first compound 2.53 µM): 0.256
relative viability (NCI-H838; first compound 8 µM): 0.18
relative viability (NCI-H1975; first compound 0.253 µM): 0.591
relative viability (NCI-H1975; first compound 0.8 µM): 0.312
relative viability (NCI-H1975; first compound 2.53 µM): 0.711
relative viability (NCI-H1975; first compound 8 µM): 0.399
relative viability (NCI-H358; first compound 0.8 µM): 0.139
relative viability (NCI-H358; first compound 2.53 µM): 0.142
relative viability (NCI-H358; first compound 8 µM): 0.132
relative viability (HARA; first compound 0.253 µM): 0.253
relative viability (HARA; first compound 2.53 µM): 0.293
relative viability (HARA; first compound 8 µM): 0.253
relative viability (LU99A; first compound 0.253 µM): 0.409
relative viability (LU99A; first compound 0.8 µM): 0.39
relative viability (LU99A; first compound 2.53 µM): 0.361
relative viability (LU99A; first compound 8 µM): 0.286
relative viability (NCI-H1734; first compound 0.253 µM): 0.348
relative viability (NCI-H1734; first compound 0.8 µM): 0.392
relative viability (NCI-H1734; first compound 2.53 µM): 0.364
relative viability (NCI-H1734; first compound 8 µM): 0.291
relative viability (HCC-366; first compound 0.253 µM): 0.437
relative viability (HCC-366; first compound 0.8 µM): 0.389
relative viability (HCC-366; first compound 2.53 µM): 0.505
relative viability (HCC-366; first compound 8 µM): 0.353
relative viability (PC-3 [JPC-3]; first compound 0.253 µM): 0.545
relative viability (PC-3 [JPC-3]; first compound 0.8 µM): 0.511
relative viability (PC-3 [JPC-3]; first compound 2.53 µM): 0.548
relative viability (PC-3 [JPC-3]; first compound 8 µM): 0.57
relative viability (NCI-H3122; first compound 0.253 µM): 0.178
relative viability (NCI-H3122; first compound 0.8 µM): 0.213
relative viability (NCI-H3122; first compound 2.53 µM): 0.232
relative viability (NCI-H3122; first compound 8 µM): 0.195
relative viability (NCI-H2405; first compound 0.253 µM): 0.513
relative viability (NCI-H2405; first compound 0.8 µM): 0.529
relative viability (NCI-H2405; first compound 2.53 µM): 0.524
relative viability (NCI-H2405; first compound 8 µM): 0.45
relative viability (LXF-289; first compound 0.253 µM): 0.616
relative viability (LXF-289; first compound 0.8 µM): 0.63
relative viability (LXF-289; first compound 2.53 µM): 0.657
relative viability (LXF-289; first compound 8 µM): 0.668
relative viability (NCI-H661; first compound 0.253 µM): 0.386
relative viability (NCI-H661; first compound 0.8 µM): 0.377
relative viability (NCI-H661; first compound 2.53 µM): 0.348
relative viability (NCI-H661; first compound 8 µM): 0.357
relative viability (NCI-H650; first compound 0.253 µM): 0.405
relative viability (NCI-H650; first compound 0.8 µM): 0.303
relative viability (NCI-H650; first compound 2.53 µM): 0.326
relative viability (NCI-H650; first compound 8 µM): 0.355
relative viability (NCI-H1792; first compound 0.253 µM): 0.656
relative viability (NCI-H1792; first compound 0.8 µM): 0.754
relative viability (NCI-H1792; first compound 2.53 µM): 0.745
relative viability (NCI-H1792; first compound 8 µM): 0.675
relative viability (HCC-15; first compound 0.253 µM): 0.685
relative viability (HCC-15; first compound 0.8 µM): 0.683
relative viability (HCC-15; first compound 2.53 µM): 0.904
relative viability (HCC-15; first compound 8 µM): 0.708
relative viability (NCI-H460; first compound 0.253 µM): 0.179
relative viability (NCI-H460; first compound 0.8 µM): 0.0987
relative viability (NCI-H460; first compound 2.53 µM): 0.197
relative viability (NCI-H460; first compound 8 µM): 0.142
relative viability (NCI-H1944; first compound 0.253 µM): 0.364
relative viability (NCI-H1944; first compound 2.53 µM): 0.342
relative viability (NCI-H1944; first compound 8 µM): 0.27
relative viability (SW 1573; first compound 0.253 µM): 0.239
relative viability (SW 1573; first compound 0.8 µM): 0.384
relative viability (SW 1573; first compound 2.53 µM): 0.399
relative viability (SW 1573; first compound 8 µM): 0.421
relative viability (NCI-H1793; first compound 0.253 µM): 0.363
relative viability (NCI-H1793; first compound 2.53 µM): 0.296
relative viability (NCI-H1793; first compound 8 µM): 0.256
relative viability (NCI-H2228; first compound 0.253 µM): 1.05
relative viability (NCI-H2228; first compound 0.8 µM): 0.36
relative viability (NCI-H2228; first compound 2.53 µM): 1.04
relative viability (NCI-H2228; first compound 8 µM): 0.657
